One data set has as its target T1, GluA3 (Rattus norvegicus, UniProt P19492).
T1 construct: expressed in transfected cells; host or cells: HEK-293S
The experiment in a line: Whole-cell current recording, GluA3. The format is cell-based. An excerpt: The original cDNAs in pBlueScript encoding rat GluA1, 2 and 3 AMPA receptors and GluK2 kainate receptor were kindly provided by Steve Heinemann. The GluA4 DNA plasmid was kindly provided by Peter Seeburg. The GluK1 plasmid was kindly provided by Geoffrey Swanson. The cDNAs of all three NMDA receptor subunits were gifts from John Woodward. All DNA plasmids were propagated using Escherichia coli host (DH5α) and purified using QIAGEN DNA purification kits.
All of the receptors were transiently expressed in HEK-293S cell. HEK-293S cells were maintained in Dulbecco's modified Eagle's medium (DMEM) supplemented with 10% fetal bovine serum and 1% penicillin in a 37° C., 5% CO2, humidified incubator. Receptors were transiently transfected by using calcium phosphate or lipofectamine 2000 (Invitrogen). The DNA plasmids encoding green fluorescent protein (GFP) and T-antigen (TAg) were cotransfected in HEK-293 S cells. […]
The procedure for whole-cell current recording to assay the inhibitory property of an RNA aptamer is known to those of skill in the art and has been previously described^7. […] The whole-cell current was recorded using an Axopatch-200B amplifier at a cutoff frequency of 2-20 kHz by a built-in, eight-pole Bessel filter and digitized at 5-50 kHz sampling frequency using a Digidata 1322A from Axon Instruments (Molecular Devices, Sunnyvale, Calif.). […]

The target of another data set is T2, GluA2Qflip (Rattus norvegicus, UniProt P19491).
T2 construct: expressed in transfected cells; host or cells: HEK-293S
T2 sequence (P19491 22-883 isoform P19491-2): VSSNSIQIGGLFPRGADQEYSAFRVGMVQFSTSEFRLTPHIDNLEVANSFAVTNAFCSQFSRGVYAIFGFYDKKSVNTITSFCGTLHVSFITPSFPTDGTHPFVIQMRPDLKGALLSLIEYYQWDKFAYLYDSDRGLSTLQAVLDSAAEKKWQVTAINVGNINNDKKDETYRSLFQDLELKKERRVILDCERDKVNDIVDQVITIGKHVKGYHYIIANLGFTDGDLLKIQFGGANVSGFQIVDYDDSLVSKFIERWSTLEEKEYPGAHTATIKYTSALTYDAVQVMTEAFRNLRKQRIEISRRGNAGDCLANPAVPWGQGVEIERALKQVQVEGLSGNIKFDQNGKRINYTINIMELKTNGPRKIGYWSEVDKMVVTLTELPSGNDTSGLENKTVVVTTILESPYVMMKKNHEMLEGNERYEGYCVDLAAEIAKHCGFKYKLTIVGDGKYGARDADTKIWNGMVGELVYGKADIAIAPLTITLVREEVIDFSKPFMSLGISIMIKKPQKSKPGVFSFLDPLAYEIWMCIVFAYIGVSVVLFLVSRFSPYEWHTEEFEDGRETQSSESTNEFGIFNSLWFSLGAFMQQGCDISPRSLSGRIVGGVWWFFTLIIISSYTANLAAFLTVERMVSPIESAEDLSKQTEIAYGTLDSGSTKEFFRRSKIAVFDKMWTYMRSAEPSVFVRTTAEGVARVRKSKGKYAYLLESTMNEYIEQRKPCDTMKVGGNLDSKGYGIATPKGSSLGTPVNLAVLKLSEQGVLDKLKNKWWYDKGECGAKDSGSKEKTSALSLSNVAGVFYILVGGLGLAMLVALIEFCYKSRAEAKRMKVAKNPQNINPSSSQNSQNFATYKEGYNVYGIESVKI
Briefly: Homologous competitive binding assay (32P-labeled aptamer, membrane-bound receptor). On the procedure:
Whether AG56 bound to the close-channel state or conformation, and if so, the affinity of binding were assayed by homologous competitive binding assay using ^32P-label^4. To do this, RNA was first dephosphorylated by using calf intestinal phosphatase (CIP), prior to the 5′-end ^32P-labeling^5. Labeled RNA was passed through a NucAway spin column (Applied Biosystem) to remove excess γ-^32P-ATP. Then, 1 μl of 10 nM of ^32P-labeled aptamer was mixed with 2 μg of yeast tRNA (Sigma) and a series of concentrations of unlabeled (cold) aptamer whose concentrations varied from 0-400 nM in the final reaction mix. The mixed aptamer sample was incubated first at 70° C. for 10 min and then at room temperature for 20 min, before mixed with the receptor. For receptor preparation, […] of the membrane-bound receptor was resuspended in 1× extracellular buffer with and without 1 mM of kainate (which corresponded to the open-channel state and the closed-channel state, respectively; for the latter, it corresponded to precisely the unliganded, closed-channel state). The final concentration for the receptor and for the hot aptamer, after mixing, was 0.4 nM and 0.1 nM, respectively. The mixture was incubated at 22° C. for 1 hour for binding. […] The radioactivity on the filter was quantified in a scintillation counter (Beckman LS6500). […]

T1 sequence (P19492 23-888): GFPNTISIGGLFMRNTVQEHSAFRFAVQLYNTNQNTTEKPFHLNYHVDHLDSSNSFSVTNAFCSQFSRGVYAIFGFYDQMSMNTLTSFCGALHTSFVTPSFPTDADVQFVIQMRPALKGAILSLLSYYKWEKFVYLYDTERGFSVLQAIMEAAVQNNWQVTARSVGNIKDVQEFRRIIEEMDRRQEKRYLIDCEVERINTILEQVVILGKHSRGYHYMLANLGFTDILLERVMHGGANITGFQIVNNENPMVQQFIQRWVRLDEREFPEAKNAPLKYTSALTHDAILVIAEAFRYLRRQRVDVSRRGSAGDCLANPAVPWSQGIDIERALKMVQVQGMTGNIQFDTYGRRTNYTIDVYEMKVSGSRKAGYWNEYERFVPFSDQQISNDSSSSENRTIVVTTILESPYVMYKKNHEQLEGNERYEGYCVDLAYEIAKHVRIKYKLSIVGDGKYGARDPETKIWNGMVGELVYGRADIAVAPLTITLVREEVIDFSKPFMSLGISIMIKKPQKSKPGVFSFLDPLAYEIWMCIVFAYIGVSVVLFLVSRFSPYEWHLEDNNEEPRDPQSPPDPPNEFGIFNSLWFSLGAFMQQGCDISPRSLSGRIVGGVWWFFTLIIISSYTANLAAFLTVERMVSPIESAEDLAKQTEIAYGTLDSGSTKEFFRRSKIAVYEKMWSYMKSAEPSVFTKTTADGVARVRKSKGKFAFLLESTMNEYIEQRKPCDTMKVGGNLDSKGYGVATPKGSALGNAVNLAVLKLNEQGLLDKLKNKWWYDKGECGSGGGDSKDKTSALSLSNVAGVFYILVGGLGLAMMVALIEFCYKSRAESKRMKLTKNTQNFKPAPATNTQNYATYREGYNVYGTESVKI

For “AG56: 56-nucleotide truncated version of AG1407, RNA aptamer (GGGAGAUUGUGAAGCGUAGGCUCGAGUUUGUCCCGCGAGCCAAAGAUUCCAGACCC; RNA, backbone not given here)”, in the data set with GluA3, the “inhibition of the closed-channel conformation” value is recorded as “no inhibitory effect” and the “inhibition of the open-channel conformation” value is listed as “similarly inhibited the open-channel conformation”. In addition, in the data set with GluA2Qflip (open-channel conformation (1 mM kainate)), the Kd came out at 80 ± 23 nM. This substance also yielded a Kd with GluA2Qflip (unliganded, closed-channel conformation (without kainate)) of 68 ± 40 nM.

For the origin of these results see US8748407B2 (The Research Foundation for the State University of New York, priority 2010, dated 2014).
